Experimental data reported in patent US20240124539A1, “CROSSLINKED HELIX DIMER MIMICS OF SOS AND METHODS OF USING SAME” (NEW YORK UNIVERSITY, priority 2020, published 2024).
Positions of bridges follow the written chain, without caps; N, C: chain ends. Non-standard residues stand in square brackets, D forms with d. Residues, ends and D or L forms follow the SMILES beside them. Chains are numbered I, II in the order given. No end group written: not given here. dibenzylether crosslinker = scaffold alkylating both cysteine thiols (drawn in Scheme 1 and; hArg = N=C(N)NCCCC[C@H](N)C(=O)O; DZ = diazirine photocrosslinker

Assays:
[1] = biological target: T1, wild-type His6-tagged H-Ras (1-166) pre-loaded with GDP (Homo sapiens, UniProt P01112); experiment: Fluorescence polarization binding assay, wild-type H-Ras-GDP
T1 construct: wild-type and mutant His6-tagged H-Ras (1-166) pre-loaded with GDP; made in house; host or cells: Escherichia coli (BL21)
Description: GTP of the Ras-specific nucleotide exchange factor SOS. Cell 112, 685-695 (2003).

H358 cells = experiment: Photoaffinity labeling with quantitative MS-based proteomics in H358 cells; type: cell-based, Homo sapiens; details: TMT abundance, negative control diazirine probe
Protocol: H358 cells were grown to 80-95% confluence in 10 cm plates with FBS-supplemented RPMI-1640. The growth medium was aspirated and the cells were washed with Dulbecco's phosphate-buffered saline (DPBS). The cells were then incubated with serum-free medium containing probes DZ2-CHC^Sos-5 (20 μM in RPMI-1640 with 0.4% DMSO, two replicates) or control probe CP-2-66 (20 μM in RPMI-1640 with 0.4% DMSO, four replicates) for 4 hours at 37° C. under an atmosphere of 5% CO2 before being irradiated under UV light (365 nm, 30 min, 4° C.). The cells were washed with DPBS, scraped and transferred to 1.5 mL Eppendorf tubes, pelleted, and stored at −80° C. until the next step.
Cell pellets were resuspended in 500 μL of DPBS and lysed by sonication (15 ms on, 40 ms off, 15% amplitude, 1 s total on×2). Protein concentrations were normalized (1-2 mg/mL; final volume of 500 μL with DPBS) using the Lowry Protein Assay (Pierce). To each sample was added solutions of tris((1-benzyl-4-triazolyl)methyl)amine (30 μl, 1.7 mM in DMSO/t-BuOH 1:4 v/v), tris(2-carboxyethyl)phosphine (10 μL, 50 mM), biotin-PEG3-azide (5 μL, 100 μM), and CuSO4 (10 μL, 50 mM) and the samples were shaken at room temperature for 1 hour. A cold MeOH/CHCI3 mixture (2.5 mL, 4:1 v/v) was added to each lysate, followed by 1 mL of cold DPBS. The resulting mixture was vortexed and centrifuged (4,700× g, 10 min, 4° C.). The organic and aqueous layers were aspirated, and the remaining protein disk was further washed via sonication in cold MeOH/CHCl3 solution (2 mL, 4:1) and pelleted by centrifugation (4,700× g, 10 min, 4° C.). The protein pellet was aspirated and combined with freshly prepared urea solution (500 μL, 6 M in DPBS) and a solution of SDS (with 10 μL of 10% w/v) by sonication. A freshly prepared 1:1 solution (50 μL) of TCEP (200 mM in DPBS) and K2CO3 (600 mM in DPBS) was added and the mixture was incubated for 30 min at 37° C. with shaking. A solution of freshly prepared iodoacetamide (70 μL, 400 mM in DPBS) was added and the mixture was incubated at RT in the absence of light. Each sample was combined with a solution of SDS (130 μL, 10% in DPBS w/v) followed by DPBS (5.5 mL) and incubated with pre-equilibrated streptavidin-agarose beads (100 μL of a 50% slurry; Pierce) for 1.5 hours at RT while rotating. The streptavidin beads were pelleted by centrifugation (750 g, 2 min, 4° C.) and sequentially washed with SDS solution (1×5 mL, 0.2% in DPBS), DPBS (2×5 mL), and triethylammonium bicarbonate buffer (1×5 mL, TEAB, 100 mM, pH 8.4). The beads were resuspended in TEAB (0.5 mL, 100 mM pH 8.5) and transferred into LoBind microcentrifuge tubes. The tube was washed once more with TEAB (0.5 mL, 100 mM pH 8.5) to ensure complete transfer of the beads, which were then pelleted by centrifugation (750× g, 2 min, 4° C. and the supernatant aspirated. Each sample of beads was combined with a solution of CaCl2 (2 μL, 100 mM) and a solution of sequencing-grade porcine trypsin (2 μg, Promega in 200 μL TEAB, 100 mM, pH 8.4), and incubated for 14 hours at 37° C.with shaking. The beads were pelleted by centrifugation (750× g, 2 min, 4° C.) and the supernatants were transferred to new
LoBind micro-centrifuge tubes. Each digested sample was TMT 10plex labeled (Thermo Fisher Scientific): for each sample a stock solution of TMT reagent (8 μL, 20 μg/μL) was added along with dry MS-grade acetonitrile (final acetonitrile concentration 30% v/v), followed by incubation at RT for 1 hour. The reaction was quenched by adding hydroxylamine (6 μL) and left to stand for 15 min, followed by the addition of formic acid (5 μL). Each TMT-labeled sample was dried via vacuum centrifugation, and the samples were combined by redissolving one sample in a solution of trifluoroacetic acid (TFA, 200 μL, 0.1% in water) and transferring the solution into each sample tube until all samples were redissolved. […]

H-Ras = biological target: T2, H-Ras (Homo sapiens, UniProt P01112); experiment: Photoaffinity labeling of purified H-Ras and tryptic digest MS; type: binding; details: 5 eq. probe, UV light, trypsin digest
T2 construct: Wild-type and mutant N-terminal His6-H-Ras (residues 1-166) in pProEx HTb expression vector; His6 (N, cleaved yes); made in house; host or cells: Escherichia coli (BL21)
Protocol: For each experiment, a sample of 250 μM diazirine-labeled CHD peptide was
Incubated samples were then photo-irradiated for 5 minutes at 24 °C. Photo-conjugated samples were then mixed with 1× SDS-PAGE loading buffer containing 5% 2-mercaptoethanol (200 μL final volume) and heated at 95° C. for 5 minutes. Heated samples were then separated via SDS-PAGE gel electrophoresis on a 1.0 mm 15% polyacrylamide gel. The resulting gel was stained with Coomassie Brilliant Dye and subsequently destained (40% MeOH/10% acetic acid/50% water).
In-gel tryptic digest was conducted with the In-Gel tryptic Digestion Kit (Thermo Scientific) according the manufacturer's instructions. Upon photoaffinity labeling, the conjugated band was isolated as a 1×1 mm segment for in-gel trypsin digest. The isolated gel band was then incubated with 200 μL of Coomassie destaining solution (25 mM ammonium bicarbonate in 1:1 ultrapure water:acetonitrile) for 30 minutes at 37 °C. After incubation, destaining buffer was removed, and the destaining step was repeated twice more. The destained gel band was treated with reducing buffer (25 mM of ammonium bicarbonate, 50 mM TCEP) for 10 minutes at 60° C. After discarding the reducing buffer, the band was treated with 200 μL of iodoacetamide alkylation solution (25 mM ammonium bicarbonate, 100 mM iodoacetamide) for 30 minutes at 37° C. while shaking in the dark. […]

CC[C@H](C)[C@H](NC(=O)[C@H](Cc1ccccc1)NC(C)=O)C(=O)NCC(=O)N[C@@H](CCCNC(=N)N)C(=O)N[C@@H](CC(C)C)C(=O)N[C@@H](CSCc1ccc(COCc2ccc(CSC[C@H](NC(=O)[C@H](CC(C)C)NC(=O)[C@H](CCCNC(=N)N)NC(=O)[C@H](C)NC(=O)[C@H](CC(C)C)NC(=O)[C@H](CCC(=O)O)NC(=O)[C@H](CCCNC(=N)N)NC(=O)[C@H](CCC(=O)O)NC(=O)[C@H](CC(C)C)NC(=O)[C@H](CCC(=O)O)NC(=O)[C@H](CCCNC(=N)N)NC(=O)[C@H](CC(C)C)NC(=O)[C@H](CCCNC(=N)N)NC(=O)[C@H](Cc3c[nH]c4ccccc34)NC(=O)[C@H](C)NC(=O)[C@H](CC(C)C)NC(C)=O)C(N)=O)cc2)cc1)C(=O)N[C@H](C(=O)N[C@@H](CC(N)=O)C(=O)N[C@H](C(=O)N[C@@H](CC(C)C)C(=O)N[C@@H](CCCCN)C(=O)N[C@@H](CC(C)C)C(=O)N[C@@H](CCCNC(=N)N)C(=O)N[C@@H](CCC(=O)O)C(=O)NCC(=O)N[C@@H](CC(N)=O)C(N)=O)[C@@H](C)CC)[C@@H](C)O [CHC^Sos-1] (HELM PEPTIDE1{[ac].F.I.G.R.L.C.T.N.I.L.K.L.R.E.G.N.[am]}|PEPTIDE2{[ac].L.A.W.R.L.R.E.L.E.R.E.L.A.R.L.C.[am]}|CHEM1{[c1cc(C[*:1])ccc1COCc1ccc(C[*:2])cc1]}$PEPTIDE1,CHEM1,7:R3-1:R1|PEPTIDE2,CHEM1,17:R3-1:R2$$$V2.0)
Kd [1]: 32 ± 6 µM

C#CCCC1(CCC(=O)NC)N=N1 [CP-266]
Average Abundance CP-266 (H358 cells; enriched protein AHSA1 (O95433)): 157
Average Abundance CP-266 (H358 cells; enriched protein EEF1D (P29692)): 614
Average Abundance CP-266 (H358 cells; enriched protein HNRNPR (O43390)): 1745
Average Abundance CP-266 (H358 cells; enriched protein PMVK (Q15126)): 177
Average Abundance CP-266 (H358 cells; enriched protein PPP4C (P60510)): 60
Average Abundance CP-266 (H358 cells; enriched protein STK26 (Q9P289)): 170

DZ1-CHC^Sos-5: CHD^Sos-5 with diazirine photocrosslinker at N-terminus of αI helix: DZ-GLAWRLRELERELARLC-NH2 (chain 1 WIGRLCTEI[hArg]RLRNGN; chain 2 {DZ}-GLAWRLRELERELARLC-NH2; linker I:6-II:17 via dibenzylether crosslinker)
Ras binding site by photo-crosslinking (H-Ras): photo-crosslinked with the Ras hinge region
